15 compounds from US9550739B2, “Molecules having certain pesticidal utilities, and intermediates, compositions, and processes related thereto” (priority 2014, dated 2017) can be followed below.

Holding throughout (assay type): in vivo
Data set [1] deals with Beet Armyworm (Spodoptera exigua, LAPHEG) ("BAW"). The data set can be described thus: Bioassays on Beet Armyworm (BAW), 128-well diet tray assay. As to conditions: Spodoptera exigua, 168 h; second instar BAW larvae, 50 μg/cm^2 on artificial diet, five to seven days, 25° C.; read-out: BAW % Control (or Mortality) rating. The method, boiled down: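 Second-instar larvae, one to five per well, were placed on artificial diet surface-treated with 50 μg/cm^2 compound in 90:10 acetone-water and dried, eight wells per compound. Trays were held at 25° C, 14:10 light-dark, for five to seven days. Percent mortality per well was averaged over the eight wells.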

For data set [2], the system named is Cabbage Looper (Trichoplusia ni, TRIPNI) ("CL"). The data set can be described thus: Bioassays on Cabbage Looper (CL), 128-well diet tray assay. As to conditions: Trichoplusia ni, 168 h, read-out: CL % Control (or Mortality) rating. The method, boiled down:
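Second instar larvae (one to five per well) placed on artificial diet treated with 50 μg/cm^2 compound in acetone-water, eight wells per compound. Held at 25° C, 14:10 light-dark for five to seven days; percent mortality averaged across wells.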

Data set [3] has as its system Green Peach Aphid (Myzus persicae, MYZUPE) ("GPA"). The data set can be described thus: Bioassays on Green Peach Aphid (GPA), cabbage seedling foliar spray. As to conditions: 72 h, 200 ppm foliar spray on cabbage seedlings, three days, Abbott corrected % control, read-out: GPA % Control (or Mortality) rating. As to the method:
Certain molecules disclosed in this document were tested against GPA using procedures described in the following example. In the reporting of the results, the “GPA Rating Table” was used (See Table Section).
Cabbage seedlings grown in 3-inch pots, with 2-3 small (3-5 cm) true leaves, were used as test substrate. The seedlings were infested with 20-50 GPA (wingless adult and nymph stages) one day prior to chemical application. Four pots with individual seedlings were used for each treatment. Test compounds (2 mg) were dissolved in 2 mL of acetone/methanol (1:1) solvent, forming stock solutions of 1000 ppm test compound. The stock solutions were diluted 5× with 0.025% Tween 20 in water to obtain the solution at 200 ppm test compound. A hand-held aspirator-type sprayer was used for spraying a solution to both sides of […] leaves until runoff. Reference plants (solvent check) were sprayed with the diluent only containing 20% by volume of acetone/methanol (1:1) solvent. Treated plants were held in a holding room for three days at approximately 25° C. and ambient relative humidity (RH) prior to grading. Evaluation was conducted by counting the number of live aphids per plant under a microscope. Percent Control was measured by using Abbott's correction formula (W. S. Abbott, “A Method of Computing the Effectiveness of an Insecticide” J. Econ. Entomol. 18 (1925), pp. 265-267) as follows. Corrected % Control=100*(X−Y)/X • where • X=No. of live aphids on solvent check plants and • Y=No. of live aphids on treated plants

Data set [4] concerns Yellow Fever Mosquito (Aedes aegypti, AEDSAE) ("YFM"). As to conditions: about 1 day-old larvae, 4000 ppm master solution diluted, 3 days, room temperature. The gist of the method: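 Compounds from 4000 ppm DMSO master plates, diluted in 90:10 water:acetone, dispensed into 96-well plates, six replicates. About 1-day-old larvae added in liver-powder water. Wells covered, held 3 days at room temperature, then scored for mortality.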

In the case of `CCOc1ccccc1-c1cccc(C(=O)Nc2ccc(-c3ncn(-c4ccc(OC(F)(F)F)cc4)n3)cc2)c1` [F38, 2′-Ethoxy-N-(4-(1-(4-(trifluoromethoxy)phenyl)-1H-1,2,4-triazol-3-yl)phenyl)-[1,1′-biphenyl]-3-carboxamide], the mortality at 50 µg/cm2 in data set [1] and in data set [2] was 50 to 100% each time. In addition, the mortality (commonly the share of the test organisms that died) at 200 ppm in data set [3] fell in the range of 0 to 80%. In addition, the “YFM % Control (or Mortality) rating” value in data set [4] is recorded as “A (80-100)”.

Regarding `Cc1cccc(C)c1-c1cccc(C(=O)Nc2ccc(-c3ncn(-c4ccc(OC(F)(F)F)cc4)n3)cc2)c1` [F12, 2′,6′-Dimethyl-N-(4-(1-(4-(trifluoromethoxy)phenyl)-1H-1,2,4-triazol-3-yl)phenyl)-[1,1′-biphenyl]-3-carboxamide], the mortality at 50 µg/cm2 in data set [1] and in data set [2] was 50 to 100% in each case. Further, the mortality at 200 ppm in data set [3] fell in the range of 0 to 80%. The “YFM % Control (or Mortality) rating” value in data set [4] was “A (80-100)”.

Take `O=C(Nc1ccc(-c2ncn(-c3ccc(C(F)(F)F)cc3)n2)cc1)c1ccc(F)c(-c2ccccc2F)c1` [F59, 2′,6-Difluoro-N-(4-(1-(4-(trifluoromethyl)phenyl)-1H-1,2,4-triazol-3-yl)phenyl)-[1,1′-biphenyl]-3-carboxamide]: the mortality at 50 µg/cm2 in data set [1] and in data set [2] was 50 to 100% each time. In addition, in data set [3], the mortality at 200 ppm stood at 0%. In addition, in data set [4], the “YFM % Control (or Mortality) rating” value is on record as “A (80-100)”.

Take `O=C(Nc1ccc(-c2ncn(-c3ccc(OC(F)(F)F)cc3)n2)cc1)c1cccc(-c2ccccc2)c1` [F24, N-(4-(1-(4-(trifluoromethoxy)phenyl)-1H-1,2,4-triazol-3-yl)phenyl)-[1,1′-biphenyl]-3-carboxamide]: the mortality at 50 µg/cm2 in data set [1] and in data set [2] was 50 to 100% throughout. Further, the mortality at 200 ppm in data set [3] lay in the range of 0 to 80%. For the same compound, in data set [4], the “YFM % Control (or Mortality) rating” value was “D (No activity noticed in this bioassay)”.

Take `CCc1ccccc1-c1cccc(C(=O)Nc2ccc(-c3ncn(-c4ccc(OC(F)(F)F)cc4)n3)cc2)c1` [F8, 2′-Ethyl-N-(4-(1-(4-(trifluoromethoxy)phenyl)-1H-1,2,4-triazol-3-yl)phenyl)-[1,1′-biphenyl]-3-carboxamide]: the mortality at 50 µg/cm2 in data set [1] and in data set [2] was 50 to 100% throughout. Moreover, the mortality at 200 ppm in data set [3] lay in the range of 0 to 80%. In addition, in data set [4], the “YFM % Control (or Mortality) rating” value is “B (More than 0-Less than 80)”.

As to `O=C(NCCc1ccc(-c2ncn(-c3ccc(OC(F)(F)F)cc3)n2)cc1)c1ccc(F)c(-c2ccccc2F)c1` [F55, 2′,6-Difluoro-N-(4-(1-(4-(trifluoromethoxy)phenyl)-1H-1,2,4-triazol-3-yl)phenethyl)-[1,1′-biphenyl]-3-carboxamide], the mortality at 50 µg/cm2 in data set [1] and in data set [2] was 50 to 100% in each case. In addition, the mortality at 200 ppm in data set [3] lay in the range of 0 to 80%. Further, the “YFM % Control (or Mortality) rating” value in data set [4] is “D (No activity noticed in this bioassay)”.

On to `COc1ccccc1-c1cccc(C(=O)Nc2ccc(-c3ncn(-c4ccc(C(F)(F)F)cc4)n3)cc2)c1` [F60, 2′-Methoxy-N-(4-(1-(4-(trifluoromethyl)phenyl)-1H-1,2,4-triazol-3-yl)phenyl)-[1,1′-biphenyl]-3-carboxamide], for which the mortality at 50 µg/cm2 in data set [1] and in data set [2] was 50 to 100% in each case. In data set [3], the mortality at 200 ppm is 0 to 80%. In addition, the “YFM % Control (or Mortality) rating” value in data set [4] is “A (80-100)”.

For `Cc1c(C(=O)Nc2ccc(-c3ncn(-c4ccc(OC(F)(F)F)cc4)n3)cc2)cccc1-c1ccccc1` [F14, 2-Methyl-N-(4-(1-(4-(trifluoromethoxy)phenyl)-1H-1,2,4-triazol-3-yl)phenyl)-[1,1′-biphenyl]-3-carboxamide], the mortality at 50 µg/cm2 in data set [1] and in data set [2] was 50 to 100% throughout. The mortality at 200 ppm in data set [3] was 0 to 80%. Moreover, in data set [4], the “YFM % Control (or Mortality) rating” value is “D (No activity noticed in this bioassay)”.

In the case of `O=C(Nc1ccc(-c2ncn(-c3ccc(OC(F)(F)F)cc3)n2)cc1)c1cc(-c2ccccc2)ccc1F` [F48, 4-Fluoro-N-(4-(1-(4-(trifluoromethoxy)phenyl)-1H-1,2,4-triazol-3-yl)phenyl)-[1,1′-biphenyl]-3-carboxamide], the mortality at 50 µg/cm2 in data set [1] was 0%; in data set [2] it was 50 to 100%. The “YFM % Control (or Mortality) rating” value in data set [4] is reported as “D (No activity noticed in this bioassay)”.

Take `COc1ccccc1-c1cccc(C(=O)Nc2ccc(-c3ncn(-c4ccc(OC(F)(F)C(F)(F)F)cc4)n3)cc2)c1` [F26, 2′-Methoxy-N-(4-(1-(4-(perfluoroethoxy)phenyl)-1H-1,2,4-triazol-3-yl)phenyl)-[1,1′-biphenyl]-3-carboxamide]: the mortality at 50 µg/cm2 in data set [1] and in data set [2] was 50 to 100% in each case. The “YFM % Control (or Mortality) rating” value in data set [4] is recorded as “A (80-100)”.

Take `COc1ccc(C(=O)Nc2ccc(-c3ncn(-c4ccc(C(F)(F)F)cc4)n3)cc2)cc1-c1ccccc1` [F61, 6-Methoxy-N-(4-(1-(4-(trifluoromethyl)phenyl)-1H-1,2,4-triazol-3-yl)phenyl)-[1,1′-biphenyl]-3-carboxamide]: the mortality at 50 µg/cm2 in data set [1] and in data set [2] was 50 to 100% throughout. The “YFM % Control (or Mortality) rating” value in data set [4] is reported as “A (80-100)”.

Consider `COc1ccccc1-c1cc(C(=O)Nc2ccc(-c3ncn(-c4ccc(C(F)(F)F)cc4)n3)cc2)ccc1F` [F20, 6-fluoro-2′-methoxy-N-(4-(1-(4-(trifluoromethyl)phenyl)-1H-1,2,4-triazol-3-yl)phenyl)-[1,1′-biphenyl]-3-carboxamide], for which the mortality at 50 µg/cm2 in data set [1] and in data set [2] was 50 to 100% each time. Moreover, the “YFM % Control (or Mortality) rating” value in data set [4] is listed as “A (80-100)”.

For `O=C(Nc1ccc(-c2ncn(-c3ccc(OC(F)(F)F)cc3)n2)cc1)c1cc(-c2ccccc2)ccc1Cl` [F15, 4-Chloro-N-(4-(1-(4-(trifluoromethoxy)phenyl)-1H-1,2,4-triazol-3-yl)phenyl)-[1,1′-biphenyl]-3-carboxamide], the mortality at 50 µg/cm2 in data set [1] and in data set [2] was 0% throughout. Also, the “YFM % Control (or Mortality) rating” value in data set [4] is on record as “D (No activity noticed in this bioassay)”.

Consider `O=C(Nc1ccc(-c2ncn(-c3ccc(OC(F)(F)F)cc3)n2)cc1)c1cccc(-c2ccccc2OCc2ccccc2)c1` [F3, 2′-(Benzyloxy)-N-(4-(1-(4-(trifluoromethoxy)phenyl)-1H-1,2,4-triazol-3-yl)phenyl)-[1,1′-biphenyl]-3-carboxamide], for which the mortality at 50 µg/cm2 in data set [1] and in data set [2] was 0% in each case. The “YFM % Control (or Mortality) rating” value in data set [4] is “D (No activity noticed in this bioassay)”.

For `O=C(NCCc1ccc(-c2ncn(-c3ccc(OC(F)(F)F)cc3)n2)cc1)c1ccc(F)c(-c2ccccc2)c1` [F51, 6-Fluoro-N-(4-(1-(4-(trifluoromethoxy)phenyl)-1H-1,2,4-triazol-3-yl)phenethyl)-[1,1′-biphenyl]-3-carboxamide], the mortality at 50 µg/cm2 in data set [1] was 50 to 100%; in data set [2], 0%. Besides, the “YFM % Control (or Mortality) rating” value in data set [4] is “D (No activity noticed in this bioassay)”.
